Marks after values point to notes of the source that are not given here.
Assays:
Type in all cases: in vivo
Settings in all cases: 100 = 100% disease control
[1] = test system: Puccinia recondita f. sp. tritici; experiment: Test I: wheat leaf rust on wheat seedlings, sprayed the day before inoculation, visual disease rating
Method in brief: (§1)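 Acetone solution (3% of final volume) of each compound is suspended in 50/50 acetone/water with 250 ppm Trem® 014. Plants are sprayed to run-off at 200 ppm, equivalent to 500 g/ha, or at 40 ppm for starred values.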

[2] = test system: Botrytis cinerea; experiment: Test C: tomato Botrytis on tomato seedlings, sprayed the day before inoculation, visual disease rating
Method in brief: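 Disease ratings refer to tomato seedlings treated by run-off spraying with compound suspensions, mostly 200 ppm (500 g/ha equivalent) and in marked cases 40 ppm. Carrier: acetone/purified water 50/50 with 250 ppm polyhydric alcohol ester surfactant, after predissolving in acetone.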

[3] = test system: Septoria tritici; experiment: Test G: wheat leaf blotch on wheat seedlings, sprayed the day before inoculation, visual disease rating
Method in brief: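 Compounds dissolved in acetone (3% of final volume), then suspended in 50/50 acetone/water with 250 ppm Trem® 014 and sprayed to run-off on seedlings at 200 ppm (≈500 g/ha) or 40 ppm where marked. Inoculation with spores followed next day; visual rating after 48 h saturated at 24° C plus 19 days at 20° C.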

[4] = test system: Septoria nodorum; experiment: Test F: wheat glume blotch on wheat seedlings, sprayed the day before inoculation, visual disease rating
Method in brief: as §1

[5] = test system: Erysiphe graminis f. sp. tritici; experiment: Test J: wheat powdery mildew on wheat seedlings, sprayed the day before inoculation, visual disease rating
Method in brief: as §1

[6] = test system: Alternaria solani; experiment: Test D: tomato early blight, sprayed the day before inoculation, visual disease rating
Method in brief: as §1

[7] = 200 ppm, 0 = no control relative to controls
[8] = 40 ppm (marked *), 0 = no control

## Cc1nn(C)c(-c2c(F)cccc2Cl)c1-c1ccc(Cl)c(F)c1 [compound 63]
[1]; [7]
  Test I disease control rating: 41%
[2]; [7]
  Test C disease control rating: 0%
[3]; [7]
  Test G disease control rating: 33%
[4]; [7]
  Test F disease control rating: 0%
[5]; [7]
  Test J disease control rating: 100%
[6]; [7]
  Test D disease control rating: 0%

## COc1ccc(F)c(-c2c(Cl)nc(Br)n2-c2cccc(F)c2)c1F [compound 278]
[1]; 200 ppm, 0 = no control
  Test I disease control rating: 100%
[2]; 200 ppm, 0 = no control
  Test C disease control rating: 99%
[3]; 200 ppm, 0 = no control
  Test G disease control rating: 95%
[4]; 200 ppm, 0 = no control
  Test F disease control rating: 100%
[5]; 200 ppm, 0 = no control
  Test J disease control rating: 100%
[6]; 200 ppm, 0 = no control
  Test D disease control rating: 100%

## Cc1nc(Br)n(-c2c(F)cccc2F)c1-c1ccc(Cl)cc1 [compound 216]
[1]; [8]
  Test I disease control rating: 93* %
[2]; [8]
  Test C disease control rating: 99* %
[3]; [8]
  Test G disease control rating: 96* %
[4]; [8]
  Test F disease control rating: 0* %
[5]; [8]
  Test J disease control rating: 94* %
[6]; [8]
  Test D disease control rating: 100* %

## CCc1ccc(-n2c(Cl)nc(Cl)c2-c2c(F)ccc(OC)c2F)cc1 [compound 442]
[1]; [7]
  Test I disease control rating: 99%
[2]; [7]
  Test C disease control rating: 99%
[3]; [7]
  Test G disease control rating: 95%
[4]; [7]
  Test F disease control rating: 0%
[5]; [7]
  Test J disease control rating: 100%
[6]; [7]
  Test D disease control rating: 99%

## Fc1cc(F)c(-n2c(Cl)nc(Cl)c2-c2ccc(Cl)cc2)c(F)c1 [compound 204]
[1]; [8]
  Test I disease control rating: 18* %
[2]; [8]
  Test C disease control rating: 90* %
[3]; [8]
  Test G disease control rating: 90* %
[4]; [8]
  Test F disease control rating: 0* %
[5]; [8]
  Test J disease control rating: 26* %
[6]; [8]
  Test D disease control rating: 91* %

## Fc1ccc(F)c(-c2c(Cl)nc(Br)n2-c2ccc(Cl)cc2)c1 [compound 85]
[1]; [7]
  Test I disease control rating: 96%
[2]; [7]
  Test C disease control rating: 73%
[3]; [7]
  Test G disease control rating: 98%
[4]; [7]
  Test F disease control rating: 11%
[5]; [7]
  Test J disease control rating: 100%
[6]; [7]
  Test D disease control rating: 100%

## CSc1ccc(F)c(-c2c(Cl)ncn2-c2ccc(Cl)cc2)c1F [compound 215]
[1]; 200 ppm, 0 = no control
  Test I disease control rating: 68%
[2]; 200 ppm, 0 = no control
  Test C disease control rating: 98%
[3]; 200 ppm, 0 = no control
  Test G disease control rating: 96%
[4]; 200 ppm, 0 = no control
  Test F disease control rating: 0%
[5]; 200 ppm, 0 = no control
  Test J disease control rating: 91%
[6]; 200 ppm, 0 = no control
  Test D disease control rating: 85%

## COc1cc(F)c(-c2c(Cl)nc(C)n2-c2ccccc2)c(F)c1C [compound 439]
[1]; [7]
  Test I disease control rating: 100%
[2]; [7]
  Test C disease control rating: 97%
[3]; [7]
  Test G disease control rating: 94%
[4]; [7]
  Test F disease control rating: 95%
[5]; [7]
  Test J disease control rating: 100%
[6]; [7]
  Test D disease control rating: 100%

## Fc1cc(F)c(-n2c(Br)nc(Cl)c2-c2ccc(Cl)cc2)c(F)c1 [compound 131]
[1]; 40 ppm (marked *)
  Test I disease control rating: 0* %
[2]; 40 ppm (marked *)
  Test C disease control rating: 90* %
[3]; 40 ppm (marked *)
  Test G disease control rating: 85* %
[4]; 40 ppm (marked *)
  Test F disease control rating: 0* %
[5]; 40 ppm (marked *)
  Test J disease control rating: 48* %
[6]; 40 ppm (marked *)
  Test D disease control rating: 99* %

## Fc1cc(-n2c(Cl)nc(CCl)c2-c2ccccc2F)ccc1Cl [compound 259]
[1]; 200 ppm, 0 = no control
  Test I disease control rating: 82%
[2]; 200 ppm, 0 = no control
  Test C disease control rating: 99%
[3]; 200 ppm, 0 = no control
  Test G disease control rating: 63%
[4]; 200 ppm, 0 = no control
  Test F disease control rating: 0%
[5]; 200 ppm, 0 = no control
  Test J disease control rating: 93%
[6]; 200 ppm, 0 = no control
  Test D disease control rating: 16%

## Fc1ccc(-n2cnc(Cl)c2-c2c(F)cc(F)cc2F)cc1 [compound 137]
[1]; [7]
  Test I disease control rating: 55%
[2]; [7]
  Test C disease control rating: 94%
[3]; [7]
  Test G disease control rating: 98%
[4]; [7]
  Test F disease control rating: 0%
[5]; [7]
  Test J disease control rating: 97%
[6]; [7]
  Test D disease control rating: 100%

## Cc1ncn(-c2ccc(Cl)c(F)c2)c1-c1ccncc1 [compound 253]
[1]; 200 ppm, 0 = no control
  Test I disease control rating: 74%
[2]; 200 ppm, 0 = no control
  Test C disease control rating: 94%
[3]; 200 ppm, 0 = no control
  Test G disease control rating: 91%
[4]; 200 ppm, 0 = no control
  Test F disease control rating: 0%
[5]; 200 ppm, 0 = no control
  Test J disease control rating: 0%
[6]; 200 ppm, 0 = no control
  Test D disease control rating: 0%

## Fc1cc(-n2c(Br)nc(Cl)c2-c2c(F)ccc(F)c2F)ccc1Cl [compound 143]
[1]; [7]
  Test I disease control rating: 100%
[2]; [7]
  Test C disease control rating: 99%
[3]; [7]
  Test G disease control rating: 100%
[4]; [7]
  Test F disease control rating: 100%
[5]; [7]
  Test J disease control rating: 100%
[6]; [7]
  Test D disease control rating: 100%

From patent publication US20110045101A1, “FUNGICIDAL SUBSTITUTED AZOLES” (E.I. Du Pont De Nemours and Company, priority 2009, published 2011)
